According to the NIST ThermoML archive (doi:10.1021/je050525c):
Numbers after ± are expanded uncertainties.

Conditions: Liquid, Ebulliometric method (Recirculating still)

Structure (SMILES)	vapor or sublimation pressure (179.68 K)	vapor or sublimation pressure (190.14 K)	vapor or sublimation pressure (200.68 K)	vapor or sublimation pressure (210.03 K)
CC [ethane]	77 ± 4 kPa	136 ± 4 kPa	223 ± 4 kPa	336 ± 4 kPa
FC(F)(F)F [tetrafluoromethane]	679 ± 5 kPa	1058 ± 6 kPa	1575 ± 7 kPa	2163 ± 9 kPa
